Assay results published in US8436011B2, “Pyridinopyridinone derivatives, preparation thereof and therapeutic use thereof” (Sanofi, priority 2008, dated 2013).
Where two headings read alike, the source gives them in different places.

Columns and labels:
[1] = biological target: T1, fusion protein Tel/PDGF-Rβ (BaF3 Tel/PDGF cells) (Homo sapiens, UniProt P09619); test: Inhibition of PDGF-Rβ tyrosine kinase activity: proliferation of BaF3 Tel/PDGF cells (CellTiter-Glo, 72 h); format: cell-based, murine; conditions: 72 hours incubation, read-out: IC50 (concentration that inhibits 50% of the proliferation of the BaF3 Tel/PDGF cells)
T1 construct: the transmembrane and intracellular part of the PDGF-Rβ receptor; N-terminal part of the Tel transcription factor (ETV6); expressed in transfected cells; host or cells: murine haematopoietic cell line BaF/3; the other entry of the earlier key: ETV6 (P41212, Transcription factor ETV6)
Protocol: Measurement of Inhibition of the Tyrosine Kinase Activity of the PDGF Beta (PDGF-Rβ) (Baf-3 tel/PDGFIRβ) Receptor:
This test consists in evaluating the effects of the compounds on the tyrosine kinase activity of the PDGF beta receptor.
The inhibitory effect of the compounds according to the invention towards the tyrosine kinase activity of the PDGF-R receptor was evaluated on the murine haematopoietic cell line BaF/3 transfected with a plasmid coding for the fusion protein Tel/PDGF-Rβ. This fusion protein is found in chronic myelomonocytic myeloid leukaemias (CMML). It comprises the N-terminal part of the Tel transcription factor and the transmembrane and intracellular part of the PDGF-Rβ receptor. This fusion protein is present in dimerized form (presence of an oligomerization domain in the N-terminal part of Tel) and, as a result, leads to constitutive activity of the kinase domain of PDGF-Rβ. This line BaF3 Tel/PDGF has been described in the literature several times and especially, in detailed manner, in the article by M. Carroll et al., PNAS, 1996, 93, 14845-14850.
The BaF3 Tel/PDGF cells are washed with phosphate buffer and inoculated in 96-well plates, at a density of 5×10^4 cells/ml ([…]), in RPMI 1640 containing 10% FCS, in the presence or absence of the test compounds. After incubation for 72 hours, the viable cells are quantified by measuring the cellular ATP by means of the CellTiter-Glo® kit (Promega, Cat G7571). The cells are treated according to the instructions given by the kit manufacturer, and the luminescence is measured using a Luminoskan (Ascent, Labsystem) with the following parameters: measurement: single; integration time: 1000 ms, lag time: 5 s.
It is thus seen that the compounds according to the invention have inhibitory activity on the tyrosine kinase activity of PDGF-Rβ. This activity is given by the concentration that inhibits 50% of the proliferation of the BaF3 Tel/PDGF cells (IC50).

[2] = biological target: T2, fusion protein Tel/PDGF-R (PDGF-Rβ kinase domain) in HEK cells (Homo sapiens, UniProt P09619); test: Ex vivo activity: plasma of orally treated mice tested on PDGF-R autophosphorylation in HEK Tel/PDGF-R cells (ELISA); design: species or system female Balb/c mice; conditions: HEK293, mouse, po, 30 mg/kg po, read-out: % inhibition of autophosphorylation of PDGFR tyrosine kinase in HEK cells
T2 construct: the transmembrane and intracellular part of the PDGF-Rβ receptor; N-terminal part of the Tel transcription factor (ETV6); expressed in transfected cells; host or cells: HEK cells (transient transfection); the other entry of the earlier key: ETV6 (P41212, Transcription factor ETV6)
Protocol: Ex vivo activity of the compounds of the invention was measured. These compounds are thus administered orally to female Balb/c mice at a dose of 10, 30 or 100 mg/kg in suspension or in solution in a vehicle such as methylcellulose/Tween and the inhibition of the tyrosine kinase activity is measured in vitro in a cell test, using plasma collected at 15 minutes, 1 hour and 4 hours.
1) Protocol for Administration of the Products to the Mice
The products are prepared in a mortar with 0.5% Tween 80 and 0.6% methylcellulose qs final volume. Depending on the case, preparations of different vehicles may be used: water, mixture of labrasol solutol 5% glucose-water. The suspended or dissolved products are administered by gavage (10 ml/kg) to female Balb/c mice 8 to 15 weeks old.
The animals are then collected at the time given by the protocol (15 min, 1 hour, 4 hours, 16 hours).
The animals are anaesthetized by intraperitoneal injection (10 ml/kg) of a ketamine (0.1 g/kg)-xylazine (20 mg/kg) mixture. […] The blood sample is collected from the vein or the artery using a dry syringe and needle. The blood is immediately transferred into heparin lithium tubes (BD microtainer). Centrifugation for 3 minutes at 12 000 rpm allows recovery of the plasma, on which the biochemical test may be performed after storage by freezing at −20° C.
2) Preparation of the HEK Tel/PDGF-R Cells and Measurement of the Phosphorylation of PDGF-R
In order to detect the ex vivo activity of the products using the mouse plasmas, the HEK cells are transiently transfected beforehand with an expression vector coding for the fusion protein Tel/PDGF-R (fusion protein described previously). After 24 hours of transfection, the cells are deprived of serum overnight and then incubated for 30 minutes with the animal plasmas treated with the products of the invention. The cells are then lysed in RIPA buffer, and detection of the phosphorylation of PDGF-Rβ is then performed via the ELISA technique, using a commercial kit (R&D Systems, DYC1767). The results are expressed as a percentage of inhibition of the autophosphorylation.
In this test of measurement of the ex vivo activity, the effect of the compounds of the invention is quantified by the percentage of inhibition of phosphorylation of the kinase domain of the PDGF-Rβ receptor in HEK cells, induced by the inhibitory activity of the product present in the plasma of the treated animals, as described in the following table: […]

T2 sequence (P09619 with tags, fused parts or gaps): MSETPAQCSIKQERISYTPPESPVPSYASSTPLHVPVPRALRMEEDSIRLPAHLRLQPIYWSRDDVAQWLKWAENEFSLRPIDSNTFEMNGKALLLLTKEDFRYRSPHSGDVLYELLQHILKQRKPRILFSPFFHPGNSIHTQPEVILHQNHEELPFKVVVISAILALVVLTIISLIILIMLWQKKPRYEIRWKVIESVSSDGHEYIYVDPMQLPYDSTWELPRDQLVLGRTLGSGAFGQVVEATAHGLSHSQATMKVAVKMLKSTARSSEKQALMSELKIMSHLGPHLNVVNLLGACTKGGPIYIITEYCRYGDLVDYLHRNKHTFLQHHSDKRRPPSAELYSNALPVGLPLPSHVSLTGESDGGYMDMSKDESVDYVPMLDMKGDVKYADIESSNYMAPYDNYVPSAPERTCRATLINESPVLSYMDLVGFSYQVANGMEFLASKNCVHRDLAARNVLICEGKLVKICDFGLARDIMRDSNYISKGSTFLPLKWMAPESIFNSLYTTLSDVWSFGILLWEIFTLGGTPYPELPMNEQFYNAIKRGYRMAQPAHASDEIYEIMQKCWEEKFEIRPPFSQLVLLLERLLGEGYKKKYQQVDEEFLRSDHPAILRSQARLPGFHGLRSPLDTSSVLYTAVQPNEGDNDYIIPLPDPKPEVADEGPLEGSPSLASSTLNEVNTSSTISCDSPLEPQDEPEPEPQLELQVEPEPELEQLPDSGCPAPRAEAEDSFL
T1 sequence (P09619 with tags, fused parts or gaps): as above

Compound | IC50 [1] [nM] | inhibition at 30 mg/kg ([2]; plasma collected at 15 min) [%] | inhibition at 30 mg/kg ([2]; plasma collected at 1 h) [%] | inhibition at 30 mg/kg ([2]; plasma collected at 4 h) [%]
CCN1CC(F)(F)C[C@H]1CNC(=O)Cc1ccc(-c2ccc3c(=O)c(C(=O)NC)c(N)n(CC)c3n2)cc1 [compound 24, 2-amino-1-ethyl-7-{4-[2-({[(2S)-1-ethyl-4,4-difluoropyrrolidin-2-yl]methyl}-amino)-2-oxoethyl]phenyl}-N-methyl-4-oxo-1,4-dihydro-1,8-naphthyridine-3-carboxamide] | 2 | 85 | 57 | 74
CCn1c(N)c(C(=O)NC)c(=O)c2ccc(-c3ccc(CC(=O)NCC4COCCN4C4CC4)cc3)nc21 (centres unmarked) [compound 33, 2-amino-7-[4-(2-{[(4-cyclopropylmorpholin-3-yl)methyl]amino}-2-oxoethyl)phenyl]-1-ethyl-N-methyl-4-oxo-1,4-dihydro-1,8-naphthyridine-3-carboxamide] | 4.7 | 80 | 82 | 75
